Data reported in publication PMC8157459, “Exploring the anti-HIV-1 reverse transcriptase, anti-inflammatory, anti-cancer activities and cytotoxicity of two fermented commercial herbal concoctions sold in Limpopo Province of South Africa” (BMC Complementary Medicine and Therapies, 2021).

Target: T1, human sPLA2 (Type V) (Homo sapiens, UniProt P39877)
T1 construct: gene PLA2G5
T1 sequence (P39877 21-138): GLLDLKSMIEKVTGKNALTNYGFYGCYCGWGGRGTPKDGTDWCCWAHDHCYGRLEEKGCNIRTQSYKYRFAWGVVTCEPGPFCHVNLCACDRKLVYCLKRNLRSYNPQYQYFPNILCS
Assay: diheptanoyl thio-PC hydrolysis, DTNB colorimetric
Assay type: biochemical
Conditions: read-out: sPLA2 (IC50 μg/mL) (converted)
From the text: diheptanoyl thio-PC hydrolysis, DTNB colorimetric on human sPLA2 (Type V)

IC50: 2.07 µM
Compound: CCCCCCCCCCCCCCCCSC[C@H](COP(=O)([O-])OCC[N+](C)(C)C)NC(=O)CCCCCCCCCCCCCCC [Thioetheramide-PC]
